Reference: ChEMBL document CHEMBL1158206, “Ferintoic Acids A and B, New Cyclic Hexapeptides from the Freshwater Cyanobacterium Microcystis aeruginosa” (J Nat Prod, 1996)
Activity calls are given as the source filed them. The calls are words filed in the database; no cut-off is given here. Numbered stars: 1 amine (or outer) side, 2 acyl side, 3 side chain; on linkers, the order of the positions; unused ones are H or OH. Bridge positions count the residues as written; N and C are the ends. Square brackets hold non-standard residues; d marks the D form. Peptide text beside a SMILES is read from it. hTyr = N[C@@H](CCc1ccc(O)cc1)C(=O)O; aIle = CC[C@@H](C)[C@H](N)C(=O)O; NMeA = CN[C@@H](C)C(=O)O; CO = O=C([*:1])[*:2]

Tests used:
[1] = Inhibition of chymotrypsin at 10 uM
[2] = Inhibition of chymotrypsin at 150 uM

Activity [1] | Activity [2] | Compound
Active | – | CC[C@@H](C)[C@@H]1NC(=O)[C@H](NC(=O)N[C@@H](Cc2ccc(O)cc2)C(=O)O)CCCCNC(=O)[C@H](Cc2ccccc2)NC(=O)[C@H](C)N(C)C(=O)[C@H](CCc2ccc(O)cc2)NC1=O ({Tyr-CO}-[dK][aIle][hTyr][NMeA]F; lactam 1-C)
– | inactive | CC[C@@H](C)[C@@H]1NC(=O)[C@H](NC(=O)N[C@@H](Cc2c[nH]c3ccccc23)C(=O)O)CCCCNC(=O)[C@H](Cc2ccccc2)NC(=O)[C@H](C)N(C)C(=O)[C@H](CCc2ccc(O)cc2)NC1=O
– | inactive | CC(C)[C@@H]1NC(=O)[C@H](NC(=O)N[C@@H](Cc2c[nH]c3ccccc23)C(=O)O)CCCCNC(=O)[C@H](Cc2ccccc2)NC(=O)[C@H](C)N(C)C(=O)[C@H](CCc2ccc(O)cc2)NC1=O ({Trp-CO}-[dK]V[hTyr][NMeA]F; lactam 1-C)
